Patent US20220008398A1 (priority 2018, published 2022)
Entries after “also recorded” stand apart in the source; their conditions may differ. Read-outs that look alike come from different tables or passages of the source.

How the values were obtained:
[1] = tested on: drug-evoked expression of the immediate early gene c-fos, whole mouse brain
Description: A unique and novel approach to preclinical testing of psychiatric drugs is based on the proposition that a direct readout of drug-evoked brain activation or inhibition in an animal is the most relevant preclinical assay, because psychiatric drugs exert their effects via activation or inhibition of specific neural circuits and cell types in the brain. […] The method called “pharmacomapping” (implemented by Certerra, Inc. Farmingdale, N.Y.) is based on a largely automated drug-screening platform that comprises whole-brain detection of drug-evoked neuronal activation represented by drug-evoked expression of the immediate early gene (IEG) c-fos (Herrera and Robertson 1996). Until now, the detection of c-fos as a marker of brain activation has been done by laborious methods of in situ hybridization or immunohistochemistry in brain tissue sections, followed by mounting the sections on microscopic slides, manual imaging, and largely visual quantification. Nevertheless, over the last two decades a number of studies used these methods to test drug-evoked activity in the mouse or rat brain for various psychoactive medications, including antipsychotics, antidepressants, stimulants and anxiolytics (Engber et al., 1998; Kiss, 2018; Salminen et al., 1996; SEMBA et al., 1996; Slattery et al., 2005; Sumner et al., 2004).
In contrast to the older methods, the pharmacomapping method uses automated and standardized whole-brain immunostaining and brain clearing together with advanced microscopy (light-sheet fluorescence microscopy, LSFM), computational (e.g. machine learning) and statistical methods (FIG. 1). The first generation of this platform used serial two-photon tomography (STPT) as a method for imaging and c-fos-GFP mice expressing green fluorescent protein (GFP) under the control of the c-fos promoter (US 20140297199A1).

[2] = tested on: time spent floating (immobility) in forced swim; experiment: Forced swim test; type: in vivo; details: mouse, single dose 10 mg/kg, 1 hour and 24 hours after drug delivery, vs vehicle treated control group
Experimental: The forced swim test is a frequently used behavioral protocol with a well-established therapeutic predictability for a broad range of antidepressants including ketamine (Porsolt et al. 1977; Cryan and Mombereau 2004; Cryan et al. 2005; Lucki et al. 2001). In this test the mouse is put in a beaker filled with water and the time spent struggling, swimming and floating is measured, with the time spent floating—when the mouse stops struggling to swim—being used as a behavioral correlate of depression.

[3] = tested on: severe major depressive disorder; details: 490 patients, daily oral gaboxadol 5 mg or 10 mg added to escitalopram 20 mg; cited from earlier work
[4] = tested on: sleep onset and sleep maintenance; details: three-month efficacy study, insomnia; cited from earlier work
[5] = tested on: combined delta, theta and alpha activity; details: 160 minutes after administration; cited from earlier work
[6] = tested on: suicidal ideation in major depressive disorder; experiment: Prospective randomized clinical trial of oral gaboxadol versus ketamine in patients at risk of suicide
[7] = acute single dose 10 mg/kg, 10 mg/kg
[8] = gaboxadol group vs ketamine group

Row | SMILES | drug-evoked brain activation (pharmacomap) ([1]; 3 mg/kg alone) | drug-evoked brain activation (pharmacomap) [1, 7] | drug-evoked brain activation (pharmacomap) ([1]; acute single dose 10 mg/kg, listed as Gaboxadol, 10 mg/kg) | time spent floating (immobility) during 6 min forced swim [2] | benefit in treatment of severe major depressive disorder [3] | effects in sleep onset and sleep maintenance [4] | whole head MEG planar gradiometer increase in combined delta, theta and alpha activity [5] | day 1 POMS total mood disturbance score [6, 8] | decrease in suicidal ideation at 230 minutes [6, 8] | proportion of responders on the SSI at day 1 [6, 8] | Cohen's d for the difference in mean group change (SSI) ([6]; gaboxadol group vs ketamine group, baseline to day 1) | average SSI score at day 1 ([6]; gaboxadol hydrochloride 0.85 mg/kg oral vs ketamine 0.5 mg/kg infusion, 24 hours) | drug-evoked brain activation (pharmacomap) ([1]; 6 mg/kg alone) | drug-evoked brain activation (pharmacomap) ([1]; acute single dose 5 mg/kg) | drug-evoked brain activation (pharmacomap) ([1]; acute single dose 100 mg/kg)
1 | Oc1noc2c1CCNC2 [gaboxadol, 4,5,6,7-tetrahydroisoxazolo [5,4-c]pyridine-3-ol] | neither gaboxadol at 3 mg/kg nor ketamine at 6 mg/kg alone evoked any brain activation detectable | very similar brain activation as ketamine | broad brain activation that is highly similar to that of ketamine | nearly identical behavioral effect as the ketamine group; also recorded: significantly reduced the time spent in floating (immobility) | no additional benefit | failed to show significant effects in sleep onset and sleep maintenance | ≥ +3 | greater improvement in the gaboxadol group compared with the ketamine group | greater in the gaboxadol group compared with the ketamine group | significantly higher in the gaboxadol group than the ketamine group | greater than medium effect size | lower in the gaboxadol group compared with the ketamine group |  |  | 
2 | CNC1(c2ccccc2Cl)CCCCC1=O (centres unmarked) [ketamine] |  | very robust and broad activation; also recorded: very broad activation pattern |  | significantly decreases the time the drug treated mice spent floating; also recorded: significantly reduced the time spent in floating (immobility) |  |  |  |  |  |  |  |  | neither gaboxadol at 3 mg/kg nor ketamine at 6 mg/kg alone evoked any brain activation detectable | modest activation | modest activation
